Values after ≈ are worked out from the molar mass of the structure shown. Read-outs that look alike come from different tables or passages of the source.
Experiments:
[1] = tested on: HT-1080 cells; test: Cellular dose response assay, HT-1080 with and without Fer-1; assay type: cell-based, human; settings: for Selectivity: ferroptosis selectivity
In short: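 Dose-response over 12 twofold concentrations, 48 h exposure, 0.4% DMSO, in cells seeded at 1500 per well overnight. HT-1080 also run plus Fer-1. Endpoint: CellTiter-Glo luminescence.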

[2] = tested on: HepG2 cells; test: Cellular dose response assay, HepG2; assay type: cell-based, human; settings: Table 7
Text: (§1) HT-1080 (human [Homo sapiens] […] fibrosarcoma), A-673 (human [Homo sapiens] […] Ewing's sarcoma), and SK-HEP-1 (human [Homo sapiens] […] hepatic adenocarcinoma), cells were obtained from ATCC. Huh7 (human [Homo sapiens] […] hepatocellular carcinoma), HLF (human [Homo sapiens] […] hepatocellular carcinoma), HepG2 (human [Homo sapiens] […] hepatocellular carcinoma), cells were obtained from the Cancer Cell Bank at Columbia University Irving Medical Center. HT-1080, A-673, Huh-7, and HLF cells were grown in Dulbecco's Modified Eagle Medium (DMEM) supplemented with 10% heat inactivated fetal bovine serum (HI-FBS), 1% non-essential amino acids, and 1% penicillin streptomycin. HepG2 and SK-HEP-1 cells were grown in Eagle's Minimum Essential Medium (EMEM) supplemented with 10% HI-FBS, and 1% penicillin-streptomycin. All cells were cultured at 37° C. and 5% CO2.
(§2) HT-1080, HepG2, Huh7, HLF, and SK-HEP-1 cells were seeded into opaque white 384-well plates at 1500 cells per well then incubated at 37° C. with 5% CO2 overnight. The next day, compounds of interest were dissolved in DMSO and 12-point 2-fold dilution series were prepared with and without Fer-1. Cells were treated in triplicate (final DMSO concentration of 0.4% in all wells, including DMSO-only control wells) and incubated for a further 48 hours at 37° C. and 5% CO2. Cell viability was evaluated using CellTiter-Glo (Promega G7573) and luminescence was recorded on a Victor 5 plate reader. Data were analyzed in GraphPad Prism 9 and error bars represent standard deviation values for three technical replicates in a representative experiment.

[3] = tested on: Huh7 cells; test: Cellular dose response assay, Huh7; assay type: cell-based, human; settings: Table 7
Text: as §1, §2

[4] = tested on: HLF cells; test: Cellular dose response assay, HLF; assay type: cell-based, human; settings: Table 7
Text: as §1, §2

[5] = tested on: SK-HEP-1 cells; test: Cellular dose response assay, SK-HEP-1; assay type: cell-based, human; settings: Table 7
Text: as §1, §2

[6] = target: T1, GPX4 (Homo sapiens, UniProt P36969); test: GPX4 activity assay in cell lysates (NADPH-coupled); assay type: biochemical; parameters: endogenous in cells; host or cells: A-673 cell lysate; settings: for GPX4% inhibition at 200 (μM): generation 2; for GPX4% inhibition at 2.5 μM: 4th generation
T1 sequence (P36969 1-170 isoform P36969-2): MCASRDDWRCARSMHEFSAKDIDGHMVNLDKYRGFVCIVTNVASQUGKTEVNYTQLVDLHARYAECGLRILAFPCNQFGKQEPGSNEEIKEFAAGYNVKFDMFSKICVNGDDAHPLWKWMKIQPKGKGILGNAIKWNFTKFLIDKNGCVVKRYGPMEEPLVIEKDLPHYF
In short: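 Native GPX4 in lysates of A-673 cells grown with 20 nM sodium selenite; lysate preincubated with compound 45 min at 37 °C in pH 8.0 buffer with 3 mM GSH, 0.5 mM NADPH and glutathione reductase. Reaction started with phosphatidylcholine hydroperoxide; NADPH consumption followed at 340 nm over 25 min; triplicates.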

[7] = in vitro; assay type: in vitro ADME, human; settings: for Microsome Stability t1/2 (min) human: microsomes
Protocol: (§3) […]. The incubation timepoints measured were 0, 5, 10, 15, 30, and 45 minutes. All samples were prepared in duplicate and analyzed by LC-MS/MS.

[8] = in vitro; assay type: in vitro ADME, mouse
Protocol: as §3

[9] = Kinetic aqueous solubility
[10] = compounds alone, Table 7, read-out: IC50 (uM) HT1080^a
[11] = with fer-1, Table 7, read-out: IC50 (uM) HT1080^b
[12] = compounds alone, read-out: IC50 (uM) HEPG2^a
[13] = with fer-1, read-out: IC50 (uM) HEPG2^b
[14] = compounds alone, read-out: IC50 (uM) Huh7^a
[15] = with fer-1, read-out: IC50 (uM) Huh7^b
[16] = compounds alone, read-out: IC50 (uM) HLF^a
[17] = with fer-1, read-out: IC50 (uM) HLF^b
[18] = compounds alone, read-out: IC50 (uM) SKHEP1^a
[19] = with fer-1, read-out: IC50 (uM) SKHEP1^b
[20] = HT1080 + Fer-1, read-out: IC50 (uM) HT1080 + Fer-1
[21] = HT1080, without Fer-1, read-out: IC50 (uM) HT1080
[22] = 1% DMSO, Phosphate Buffered Saline pH 7.4, 1 hour, ambient, UV/Vis absorbance
[23] = with Fer-1, Table 10, read-out: IC50 (μM) HT1080 + Fer-1
[24] = without Fer-1, Table 10, read-out: IC50 (μM) HT1080

Cn1nc(C(=O)NC(C)(C)COC(=O)CCl)c2cccc(OC(=O)CCl)c21 [QW-360]
IC50 [1, 10]: 12.7 µM
IC50 [1, 11]: 46.7 µM
IC50 [2, 12]: 24.8 µM
IC50 [2, 13]: 40.3 µM
IC50 [3, 14]: 9.1 µM
IC50 [3, 15]: 175 µM
IC50 [4, 16]: 6.7 µM
IC50 [4, 17]: 27.1 µM
IC50 [5, 18]: 3.5 µM
IC50 [5, 19]: 44.4 µM
GPX4 inhibition ([6]; 200 μM): complete inhibition
GPX4% inhibition at 200 (μM) ([6]; 200 μM): 101.9 ± 1.5%

Cn1nc(C(=O)NC(C)(C)COC(=O)CBr)c2ccccc21 [QW-365]
IC50 [1, 10]: 0.7 µM
IC50 [1, 11]: 12.2 µM
IC50 [2, 12]: 2.9 µM
IC50 [2, 13]: 18.6 µM
IC50 [3, 14]: 0.8 µM
IC50 [3, 15]: 16.8 µM
IC50 [4, 16]: 0.5 µM
IC50 [4, 17]: 8.8 µM
IC50 [5, 18]: 0.3 µM
IC50 [5, 19]: 12.1 µM
GPX4% inhibition at 200 (μM) ([6]; 200 μM): 94.5 ± 4.5%

COc1ccc(-c2ccc3c(C(=O)NC(C)(C)COC(=O)CCl)nn(C)c3c2)cc1 [QW-454]
IC50 [1, 20]: 11.5 µM
IC50 [1, 21]: 0.94 µM
ferroptosis induction / potency in HT-1080 cells, result in words ([1]; RSL3 as control): sub-molar range cellular activities and decreased ferroptosis selectivity
Selectivity ([1]; HT1080 + Fer-1 vs HT1080): 12.2
Microsome Stability t1/2 (min) human [7]: 1.8 min
Microsome Stability t1/2 (min) mouse ([8]; mouse, microsomes): 1.7 min
Solubility [9, 22]: 2.9 µM (≈ 1.25 µg/mL)
Solubility ([9]; aqueous solubility, Table 9): 2.9 µM (≈ 1.25 µg/mL)
GPX4% inhibition at 5 μM [6]: 86.8 ± 2.6%

Cn1nc(C(=O)NC(C)(C)COC(=O)CCl)c2ccc(-c3cccc(Cl)c3)cc21 [QW-458]
IC50 [1, 20]: 24 µM
IC50 [1, 21]: 2 µM
Selectivity ([1]; HT1080 + Fer-1 vs HT1080): 12
Microsome Stability t1/2 (min) human [7]: 1.9 min
Microsome Stability t1/2 (min) mouse ([8]; mouse, microsomes): 1.9 min
Solubility [9, 22]: 6.1 µM (≈ 2.65 µg/mL)
Solubility ([9]; aqueous solubility, Table 9): 6.1 µM (≈ 2.65 µg/mL)
GPX4% inhibition at 5 μM [6]: 80.5 ± 3.0%

COc1ccc(-c2ccc3c(C(=O)NC(C)(C)COC(=O)CCl)nn(C)c3c2)cc1C [QW-488]
Microsome Stability t1/2 (min) human [7]: 1.8 min
Microsome Stability t1/2 (min) mouse ([8]; mouse, microsomes): 1.1 min
Solubility [9, 22]: 5.4 µM (≈ 2.4 µg/mL)
Solubility ([9]; aqueous solubility, Table 9): 5.4 µM (≈ 2.4 µg/mL)
GPX4% inhibition at 5 μM [6]: 87.3 ± 3.3%

CC(C)Oc1ccc(-c2ccc3c(C(=O)NC(C)(C)COC(=O)CCl)nn(C)c3c2)cc1 [QW-506]
Microsome Stability t1/2 (min) human [7]: 2.9 min
Microsome Stability t1/2 (min) mouse ([8]; mouse, microsomes): 1.7 min
Solubility [9, 22]: 1.7 µM (≈ 0.779 µg/mL)
Solubility ([9]; aqueous solubility, Table 9): 1.7 µM (≈ 0.779 µg/mL)
GPX4% inhibition at 5 μM [6]: 75.4 ± 3.9%

CC(C)(COC(=O)CCl)NC(=O)c1nn(Cc2ccc(C(F)(F)F)cc2)c2cc(-c3ccc(N4CCOCC4)c(Cl)c3)ccc12 [QW-874]
Selectivity ([1]; IC50 with Fer-1 / IC50): 1.7
IC50 [1, 23]: 49 µM
IC50 [1, 24]: 28.3 µM
GPX4% inhibition at 2.5 μM [6]: 57.5 ± 24.5%

CC(C)(COC(=O)CCl)NC(=O)c1nn(Cc2ccc(-c3ccc(N4CCOCC4)c(Cl)c3)cc2)c2cc(-c3ccc(N4CCOCC4)c(Cl)c3)ccc12 [QW-883]
Selectivity ([1]; IC50 with Fer-1 / IC50): 371.4
IC50 [1, 23]: 20.8 µM
IC50 ([1]; without Fer-1, Table 10, read-out: IC50 HT1080): 0.0564 µM
GPX4% inhibition at 2.5 μM [6]: 41.1 ± 40.9%

COc1ccc(-c2cc(Cl)cc(Cn3nc(C(=O)NC(C)(C)C(C)(C)OC(=O)CCl)c4ccc(-c5ccc(OC)c(Cl)c5)cc43)c2)cc1Cl [QW-888]
Selectivity ([1]; IC50 with Fer-1 / IC50): 2.0
IC50 [1, 23]: 49.6 µM
IC50 [1, 24]: 24.5 µM
GPX4% inhibition at 2.5 μM [6]: 78.7 ± 5.0%

C[C@]12CC[C@H]3[C@@H](CCC4=CC(=O)CC[C@@]43C)[C@@H]1CC[C@@H]2O [Testosterone, reference compound]
half-life ([7]; pH 7.4, human liver microsomes, read-out: Microsome Stability t1/2 (min) human): 9.5 min
Microsome Stability t1/2 (min) mouse ([8]; mouse liver microsomes): 5.3 min

Source: patent publication US20250248979A1, “NOVEL GPX4 INHIBITORS AND USES THEREOF” (THE TRUSTEES OF COLUMBIA UNIVERSITY IN THE CITY OF NEW YORK, priority 2022, published 2025)
